Values quoted from earlier work as cited in article PMC6099102, “Effect of the Nature of Donor Atoms on the Thermodynamic, Kinetic and Relaxation Properties of Mn(II) Complexes Formed With Some Trisubstituted 12-Membered Macrocyclic Ligands” (Frontiers in Chemistry, 2018).
Where two headings read alike, the source gives them in different places.

Tests used:
[1] = cited from earlier work
[2] = cited from earlier work; for pMn: pH = 7.4, cM = cL = 10^−5 M
[3] = cited from earlier work; for Σ log K2H: log K1H + log K2H
[4] = cited from earlier work; remark: listed apart in the source
[5] = Mn(II) complex, I = 0.1 M KCl, ref Takács et al., [2014]
[6] = 0.1 M KCl, ref Takács et al., [2014]
[7] = ref Tircsó and Woods (in preparation)
[8] = I = 0.1 M KCl, ref Forgács et al., [2016]
[9] = Mn(II) complex, I = 0.1 M KCl, ref Forgács et al., [2017]
[10] = I = 0.1 M KCl, ref Forgács et al., [2017]
[11] = Mn(II) complex, ref Garda et al. ([2016])

Compound: O=C(O)CN1CCN(CC(=O)O)CCN(CC(=O)O)CCN(CC(=O)O)CC1 [DOTA]
- k1 (proton-assisted dissociation) ([1]; ref Drahos et al., [2011]): 0.040 M⁻¹ s⁻¹
- log KML [2, 5]: 19.44
- log KMLH [2, 5]: 3.96
- pMn ([2]; I = 0.1 M KCl, ref Takács et al., [2014]): 9.02
- log K1H [3, 6]: 11.41
- log K2H [3, 6]: 9.83
- log K3H [3, 6]: 4.38
- log K4H [3, 6]: 4.63
- log K5H [3, 6]: 1.92
- log K6H [3, 6]: 1.58
- Σ log K2H [3, 6]: 21.24

Compound: CC(C(=O)[O-])N1CCN(C(C)C(=O)[O-])CCN(C(C)C(=O)[O-])CCN(C(C)C(=O)[O-])CC1.[Mn+2] (centres unmarked) [[Mn(DOTMA)]^2−]
- k1 (proton-assisted dissociation) ([1]; 1.0 M KCl, proton-assisted dissociation of the [Mn(H2L)] complex, ref Tircsó and Woods (in preparation)): 3.96e-05 M⁻¹ s⁻¹
- t1/2 0.1 M HCl ([1]; 1.0 M KCl, ref Tircsó and Woods (in preparation)): 103 min
- k0 (spontaneous dissociation) ([1]; 1.0 M KCl, spontaneous dissociation of the [Mn(H2L)] complex, ref Tircsó and Woods (in preparation)): 0.000104 s⁻¹
- r1p [4, 7]: 1.76 mM⁻¹ s⁻¹

Compound: O=C([O-])CN1CCN(CC(=O)O)CCN(CC(=O)[O-])CCN(CC(=O)O)CC1.[Mn+2] [[Mn(H2DOTA)]]
- r1p ([4]; 0.5 T field strength (20 MHz) and 37 °C, ref Wang and Westmoreland ([2009])): 3.20 mM⁻¹ s⁻¹

Compound: CC(C(=O)[O-])N1CCN(C(C)C(=O)O)CCN(C(C)C(=O)[O-])CCN(C(C)C(=O)O)CC1.[Mn+2] (centres unmarked) [[Mn(H2DOTMA)]]
- r1p [4, 7]: 2.98 mM⁻¹ s⁻¹

Compound: O=C([O-])CN1CCNCCNCCN(CC(=O)[O-])CC1.[Mn+2] [[Mn(cis-DO2A)]]
- k1 (proton-assisted dissociation) ([1]; ref Garda et al. ([2016])): 100 M⁻¹ s⁻¹
- k2 (proton-assisted dissociation) ([1]; ref Garda et al. ([2016])): 1.6 × 10^6 M^−2s^−1
- t1/2 pH = 7.4 cM = 10^−5 M ([1]; ref Garda et al. ([2016])): 58 h
- r1p ([4]; ref Rolla et al. ([2013])): 2.10^[a] mM^−1s^−1

Compound: CN(C)C(=O)CN1CCNCCNCCN(CC(=O)N(C)C)CC1.[Mn+2] [[Mn(cis-DO2AM^Me2)]^2+]
- k1 (proton-assisted dissociation) [1, 8]: 8.7 M⁻¹ s⁻¹
- t1/2 0.1 M HCl [1, 8]: 0.0132 min
- t1/2 pH = 7.4 cM = 10^−5 M [1, 8]: 556 h
- r1p ([4]; ref Forgács et al. ([2016])): 2.50^[h] mM^−1s^−1

Compound: O=C([O-])CN1CCNCCN(CC(=O)[O-])CCNCC1.[Mn+2] [[Mn(trans-DO2A)]]
- k1 (proton-assisted dissociation) ([1]; ref Garda et al. ([2016])): 85 M⁻¹ s⁻¹
- k2 (proton-assisted dissociation) ([1]; ref Garda et al. ([2016])): 3.0 × 10^6 M^−2s^−1
- t1/2 pH = 7.4 cM = 10^−5 M ([1]; ref Garda et al. ([2016])): 48 h
- r1p ([4]; ref Rolla et al. ([2013])): 1.50^[a] mM^−1s^−1

Compound: O=C(CN1CCNCCNCCN(CC(=O)NCc2ccccc2)CC1)NCc1ccccc1 [cis-DO2AM^Bz2]
- log KML [2, 9]: 10.72
- log KMLOH [2, 9]: 9.44
- pMn [2, 10]: 6.69
- log K1H [3, 10]: 9.62
- log K2H [3, 10]: 6.90
- Σ log K2H [3, 10]: 16.52

Compound: CN(C)C(=O)CN1CCNCCNCCN(CC(=O)N(C)C)CC1 [cis-DO2AM^Me2]
- log KML ([2]; Mn(II) complex, I = 0.1 M KCl, ref Forgács et al., [2016]): 12.64
- pMn [2, 8]: 6.98
- log K1H [3, 8]: 10.14
- log K2H [3, 8]: 8.38
- Σ log K2H [3, 8]: 18.52

Compound: O=C(O)CN1CCNCCNCCN(CC(=O)O)CC1 [cis-DO2A]
- log KML [2, 11]: 15.68
- log KMLH [2, 11]: 4.15
- pMn ([2]; ref Garda et al. ([2016])): 7.27
- Σ log K2H ([3]; ref Garda et al. ([2016])): 20.95
- log K1H ([3]; ref Garda et al. ([2016])): 11.44
- log K2H ([3]; ref Garda et al. ([2016])): 9.51
- log K3H ([3]; ref Garda et al. ([2016])): 4.14
- log K4H ([3]; ref Garda et al. ([2016])): 1.55

Compound: O=C(O)CN1CCNCCN(CC(=O)O)CCNCC1 [trans-DO2A]
- log KML [2, 11]: 14.64
- log KMLH [2, 11]: 4.40
- pMn ([2]; ref Garda et al. ([2016])): 6.52
- Σ log K2H ([3]; ref Garda et al. ([2016])): 21.44
- log K1H ([3]; ref Garda et al. ([2016])): 11.69
- log K2H ([3]; ref Garda et al. ([2016])): 9.75
- log K3H ([3]; ref Garda et al. ([2016])): 3.97
- log K4H ([3]; ref Garda et al. ([2016])): 2.68
